Where “and” joins values, the source holds several entries; their conditions need not be identical. Identical values can stand only once.
Tests used:
participants with PPF [1] = assay: Phase 2 study, PPF cohort: efficacy (ppFVC, FVC); assay type: in vivo, human; details: for Difference (S.E.) in rate of decline in FVC (% Predicted), 30 mg - placebo: 30 mg BID
Method: (§1) A total of 123 participants with PPF were randomized. Participants (age ≥21 years) were randomized (1:1:1) to receive 30 mg or 60 mg Compound A or PBO twice daily for 26 weeks. […] Immunosuppressive medications (mycophenolate mofetil, mycophenolic acid, azathioprine and/or tacrolimus) were permitted only if dosing is stable for ≥6 months prior to screening. If receiving antifibrotic agents pirfenidone or nintedanib, patients had to receive a stable dosage for ≥3 months prior to screening and during the screening period; if not receiving pirfenidone or nintedanib, patients had to be naive to both drugs or not have received either 4 weeks prior to Day 1. A total of 47 (38.2%) subjects were receiving antifibrotic treatment (with or without immunosuppression therapy). Of those subjects, 34 were being treated with nintedanib and 13 with pirfenidone. Participants were stratified by usual interstitial pneumonia (UIP) pattern (presence versus absence) and background therapy (antifibrotics+/−ILD-targeted immunosuppression versus ILD-targeted immunosuppression alone versus none). UIP pattern was present in 52% of subjects and unclassifiable ILD was the most common disease categorization.
The study was not powered to detect statistical significance (no formal testing). No target effect size was defined in the study design. There were two estimand approaches for analysis: • Treatment Policy: Effect of treatment with dose reduction as part of treatment regimen.
While-On Treatment: Effect of treatment without dose reduction.
The main efficacy endpoint, rate of FVC decline (in % of predicted) from baseline to wk-26 in the PPF cohort, was estimated using a linear mixed-effects model utilizing all FVC timepoints. It was analyzed under a primary estimand (utilizing all data, treatment policy strategy), and under supplementary estimand (utilizing all data up to the point of dose reduction, while-on-treatment strategy). Analysis was performed in the overall population as well as in sub-groups by 1) background anti-fibrotic treatment or not 2) UIP radiographic pattern (presence or not). The mean baseline ppFVC was 66.7% for the PPF cohort.

participants with PPF [2] = assay: Phase 2 study, PPF cohort: safety and blood pressure; assay type: in vivo, human; details: for Treatment discontinuations: 26-week treatment phase; for Nadir postdose reduction from baseline in mean seated systolic blood pressure: day 1
Method: as §1
Patient is experiencing any of the following, confirmed by retest within 15 minutes: • Seated systolic blood pressure <85 mmHg • Seated diastolic blood pressure <55 mmHg • Orthostatic hypotension
Patient is experiencing symptoms that, in the investigator's opinion, could be associated with a reduction in blood pressure and is also experiencing at least one of the following, confirmed by retest within 15 minutes: • Seated systolic blood pressure <100 mmHg or seated diastolic blood pressure <60 mmHg • Decrease of seated systolic blood pressure of ≥20 mmHg from the previous visit or decrease of seated diastolic blood pressure of ≥10 mmHg from the previous visit • Orthostatic hypotension • Orthostatic tachycardia

What does the source list for CCCN(C)C(=O)OCc1c(-c2ccc(O[C@H]3CCC[C@H](C(=O)O)C3)c(C)n2)nnn1C [Compound A, (1S,3S)-3-((2-methyl-6-(1-methyl-5-(((methyl(propyl)carbamoyl)-oxy)methyl)-1H-1,2,3-triazol-4-yl)pyridin-3-yl)oxy)cyclohexane-1-carboxylic acid]?
Difference (S.E.) in rate of decline in FVC (% Predicted), 30 mg - placebo (participants with PPF [1]; UIP absent, primary estimand (treatment policy)): 2.25 (2.13) % Predicted; Difference (S.E.) in rate of decline in FVC (% Predicted), 30 mg - placebo (participants with PPF [1]; UIP absent, supplementary estimand (while on treatment)): 2.26 (2.28) % Predicted; Difference (S.E.) in rate of decline in FVC (% Predicted), 30 mg - placebo (participants with PPF [1]; UIP present, primary estimand (treatment policy)): 0.88 (1.6) % Predicted; Difference (S.E.) in rate of decline in FVC (% Predicted), 30 mg - placebo (participants with PPF [1]; UIP present, supplementary estimand (while on treatment)): 1.28 (1.61) % Predicted; Difference (S.E.) in rate of decline in FVC (% Predicted), 30 mg - placebo (participants with PPF [1]; not receiving antifibrotic treatment, primary estimand (treatment policy)): 1.28 (1.63) % Predicted; Difference (S.E.) in rate of decline in FVC (% Predicted), 30 mg - placebo (participants with PPF [1]; not receiving antifibrotic treatment, supplementary estimand (while on treatment)): 1.34 (1.66) % Predicted; Difference (S.E.) in rate of decline in FVC (% Predicted), 30 mg - placebo (participants with PPF [1]; overall, primary estimand (treatment policy)): 1.57 (1.29) % Predicted; Difference (S.E.) in rate of decline in FVC (% Predicted), 30 mg - placebo (participants with PPF [1]; overall, supplementary estimand (while on treatment)): 1.78 (1.34) % Predicted; Difference (S.E.) in rate of decline in FVC (% Predicted), 30 mg - placebo (participants with PPF [1]; receiving antifibrotic treatment, primary estimand (treatment policy)): 1.99 (2.12) % Predicted; Difference (S.E.) in rate of decline in FVC (% Predicted), 30 mg - placebo (participants with PPF [1]; receiving antifibrotic treatment, supplementary estimand (while on treatment)): 2.58 (2.25) % Predicted; Dose response of efficacy (ppFVC decline) (participants with PPF [1]; 30 mg and 60 mg BID): Clear dose response; Difference (S.E.) in rate of decline in FVC (% Predicted), 60 mg - placebo (participants with PPF [1]; 60 mg BID, UIP absent, primary estimand (treatment policy)): 3.81 (2.02) % Predicted; Difference (S.E.) in rate of decline in FVC (% Predicted), 60 mg - placebo (participants with PPF [1]; 60 mg BID, UIP absent, supplementary estimand (while on treatment)): 3.80 % Predicted and 3.8 (2.17) % Predicted; Difference (S.E.) in rate of decline in FVC (% Predicted), 60 mg - placebo (participants with PPF [1]; 60 mg BID, UIP present, primary estimand (treatment policy)): 2.49 (1.61) % Predicted; Difference (S.E.) in rate of decline in FVC (% Predicted), 60 mg - placebo (participants with PPF [1]; 60 mg BID, UIP present, supplementary estimand (while on treatment)): 2.12 % Predicted and 2.12 (1.62) % Predicted; Difference (S.E.) in rate of decline in FVC (% Predicted), 60 mg - placebo (participants with PPF [1]; 60 mg BID, not receiving antifibrotic treatment, primary estimand (treatment policy)): 2.85 (1.6) % Predicted; Difference (S.E.) in rate of decline in FVC (% Predicted), 60 mg - placebo (participants with PPF [1]; 60 mg BID, not receiving antifibrotic treatment, supplementary estimand (while on treatment)): 2.61 % Predicted and 2.61 (1.63) % Predicted; Difference (S.E.) in rate of decline in FVC (% Predicted), 60 mg - placebo (participants with PPF [1]; 60 mg BID, overall, primary estimand (treatment policy)): 3.2 % Predicted and 3.15 (1.27) % Predicted; Difference (S.E.) in rate of decline in FVC (% Predicted), 60 mg - placebo (participants with PPF [1]; 60 mg BID, overall, supplementary estimand (while on treatment)): 2.9 % Predicted and 2.94 % Predicted and 2.94 (1.32) % Predicted; Difference (S.E.) in rate of decline in FVC (% Predicted), 60 mg - placebo (participants with PPF [1]; 60 mg BID, receiving antifibrotic treatment, primary estimand (treatment policy)): 3.74 (2.1) % Predicted; Difference (S.E.) in rate of decline in FVC (% Predicted), 60 mg - placebo (participants with PPF [1]; 60 mg BID, receiving antifibrotic treatment, supplementary estimand (while on treatment)): 3.28 % Predicted and 3.28 (2.21) % Predicted; Adjusted mean treatment difference in absolute change in FVC vs placebo (participants with PPF [1]; 60 mg BID, week 26): 87.4 mL; Consistency of efficacy across sub-groups (participants with PPF [1]; irrespective of background antifibrotics or of UIP pattern): Efficacy consistent in all sub-groups; Hepatobiliary toxicity (participants with PPF [2]; PPF cohort): No hepatobiliary toxicity; Tolerability and safety findings (participants with PPF [2]; PPF cohort): well-tolerated, demonstrated no unexpected safety findings; Low BP thresholds (events) (participants with PPF [2]; PPF, 30 mg): 30%; Asymptomatic blood pressure reduction (prespecified criteria) (participants with PPF [2]; PPF, 30 mg BID (n = 40)): 9 (22.5) no. (%); COVID-19 (participants with PPF [2]; PPF, 30 mg BID (n = 40)): 6 (15.0) no. (%); Cough (participants with PPF [2]; PPF, 30 mg BID (n = 40)): 3 (7.5) no. (%); Deaths due to TEAEs (participants with PPF [2]; PPF, 30 mg BID (n = 40)): 0 no. (%); Diarrhea (participants with PPF [2]; PPF, 30 mg BID (n = 40)): 6 (15.0) no. (%); Discontinuations due to TEAEs (participants with PPF [2]; PPF, 30 mg BID (n = 40)): 1 no. (%) and 1 (2.5) no. (%); Dizziness (participants with PPF [2]; PPF, 30 mg BID (n = 40)): 0 no. (%); Dose reductions (participants with PPF [2]; PPF, 30 mg BID (n = 40)): 6 (15.0) no. (%); Dyspnea (participants with PPF [2]; PPF, 30 mg BID (n = 40)): 2 (5.0) no. (%); Hypertension (participants with PPF [2]; PPF, 30 mg BID (n = 40)): 0 no. (%); Hypotension (participants with PPF [2]; PPF, 30 mg BID (n = 40)): 4 (10.0) no. (%); Nausea (participants with PPF [2]; PPF, 30 mg BID (n = 40)): 4 (10.0) no. (%); Orthostatic hypotension (TEAE) (participants with PPF [2]; PPF, 30 mg BID (n = 40)): 2 (5.0) no. (%); Orthostatic hypotension within asymptomatic blood pressure reduction (participants with PPF [2]; PPF, 30 mg BID (n = 40)): 6 (15.0) no. (%); Orthostatic hypotension within symptomatic blood pressure reduction (participants with PPF [2]; PPF, 30 mg BID (n = 40)): 1 (2.5) no. (%); Rash (participants with PPF [2]; PPF, 30 mg BID (n = 40)): 3 (7.5) no. (%); Symptomatic blood pressure reduction (prespecified criteria) (participants with PPF [2]; PPF, 30 mg BID (n = 40)): 2 (5.0) no. (%); Vomiting (participants with PPF [2]; PPF, 30 mg BID (n = 40)): 3 (7.5) no. (%); ≥1 TEAE (participants with PPF [2]; PPF, 30 mg BID (n = 40)): 33 (82.5) no. (%); ≥1 TEAE related to study drug (participants with PPF [2]; PPF, 30 mg BID (n = 40)): 7 (17.5) no. (%); ≥1 TESAE (participants with PPF [2]; PPF, 30 mg BID (n = 40)): 4 (10.0) no. (%); Treatment discontinuations (participants with PPF [2]; PPF, 30 mg BID): 7.5%; Nadir postdose reduction from baseline in mean seated systolic blood pressure (participants with PPF [2]; PPF, 30 mg): −10.7 mmHg; Asymptomatic blood pressure reduction (prespecified criteria) (participants with PPF [2]; PPF, 60 mg BID (n = 42)): 13 (31.0) no. (%); COVID-19 (participants with PPF [2]; PPF, 60 mg BID (n = 42)): 6 (14.3) no. (%); Cough (participants with PPF [2]; PPF, 60 mg BID (n = 42)): 5 (11.9) no. (%); Deaths due to TEAEs (participants with PPF [2]; PPF, 60 mg BID (n = 42)): 0 no. (%); Diarrhea (participants with PPF [2]; PPF, 60 mg BID (n = 42)): 3 (7.1) no. (%); Discontinuations due to TEAEs (participants with PPF [2]; PPF, 60 mg BID (n = 42)): 0 no. (%); Dizziness (participants with PPF [2]; PPF, 60 mg BID (n = 42)): 4 (9.5) no. (%); Dose reductions (participants with PPF [2]; PPF, 60 mg BID (n = 42)): 5 (11.9) no. (%); Dyspnea (participants with PPF [2]; PPF, 60 mg BID (n = 42)): 0 no. (%); Hypertension (participants with PPF [2]; PPF, 60 mg BID (n = 42)): 1 (2.4) no. (%); Hypotension (participants with PPF [2]; PPF, 60 mg BID (n = 42)): 3 (7.1) no. (%); Nausea (participants with PPF [2]; PPF, 60 mg BID (n = 42)): 1 (2.4) no. (%); Orthostatic hypotension (TEAE) (participants with PPF [2]; PPF, 60 mg BID (n = 42)): 4 (9.5) no. (%); Orthostatic hypotension within asymptomatic blood pressure reduction (participants with PPF [2]; PPF, 60 mg BID (n = 42)): 11 (26.2) no. (%); Orthostatic hypotension within symptomatic blood pressure reduction (participants with PPF [2]; PPF, 60 mg BID (n = 42)): 4 (9.5) no. (%); Rash (participants with PPF [2]; PPF, 60 mg BID (n = 42)): 0 no. (%); Symptomatic blood pressure reduction (prespecified criteria) (participants with PPF [2]; PPF, 60 mg BID (n = 42)): 6 (14.3) no. (%); Vomiting (participants with PPF [2]; PPF, 60 mg BID (n = 42)): 0 no. (%); ≥1 TEAE (participants with PPF [2]; PPF, 60 mg BID (n = 42)): 28 (66.7) no. (%); ≥1 TEAE related to study drug (participants with PPF [2]; PPF, 60 mg BID (n = 42)): 11 (26.2) no. (%); ≥1 TESAE (participants with PPF [2]; PPF, 60 mg BID (n = 42)): 5 (11.9) no. (%); Treatment discontinuations (participants with PPF [2]; PPF, 60 mg BID): 4.8%; Orthostatic hypotension (asymptomatic and symptomatic) versus other groups (participants with PPF [2]; PPF, 60 mg group): higher in the 60 mg group than for other groups; Nadir postdose reduction from baseline in mean seated systolic blood pressure (participants with PPF [2]; PPF, 60 mg): −12.7 mmHg
